From US6737383B1, “Herbicidal oxadiazolidines” (priority 1999, dated 2004)

Assays:
sugar beet = assay: Test B pre/postemergence sugar beet; format: in vivo, Beta vulgaris; conditions: for Plant response rating, Sugarbeets: scale of 0 to 10 where 0 is no effect and 10 is complete control
Summary of the method: (§1)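 Response is a visual 0-to-10 score relative to untreated plants, where 0 means no effect and 10 means complete control, taken twelve to sixteen days after application. Treatments went onto soil at planting and onto foliage of 1- to 4-leaf plants, using a surfactant-containing non-phytotoxic solvent.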

purple nutsedge = assay: Test B pre/postemergence purple nutsedge; format: in vivo, Cyperus rotundus; conditions: for Plant response rating, Nutsedge: scale of 0 to 10 where 0 is no effect and 10 is complete control
Summary of the method: as §1

pigweed = assay: Test B pre/postemergence pigweed; format: in vivo, Amaranthus retroflexus; conditions: for Plant response rating, Redroot pigweed: scale of 0 to 10 where 0 is no effect and 10 is complete control
Summary of the method: as §1

giant foxtail = assay: Test B pre/postemergence giant foxtail; format: in vivo, Setaria faberii
Summary of the method: as §1

soybean = assay: Test B pre/postemergence soybean; format: in vivo, Glycine max; conditions: for Plant response rating, Soybean: scale of 0 to 10 where 0 is no effect and 10 is complete control
Summary of the method: as §1

rice = assay: Test B flood test rice; format: in vivo, Oryza sativa
Summary of the method: (§2)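 Each value is a visual injury score relative to controls, with 10 meaning complete control and 0 no effect. Evaluation took place twelve to sixteen days after the 2-leaf-stage plants were treated and kept in the greenhouse.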

smallflower flatsedge = assay: Test B flood test smallflower flatsedge; format: in vivo, Cyperus difformis
Summary of the method: as §2

blackgrass = assay: Test B pre/postemergence blackgrass; format: in vivo, Alopecurus myosuroides
Summary of the method: as §1

duck salad = assay: Test B flood test duck salad; format: in vivo, Heteranthera limosa
Summary of the method: as §2

cocklebur = assay: Test B pre/postemergence cocklebur; format: in vivo, Xanthium strumarium
Summary of the method: as §1

wild oat = assay: Test B pre/postemergence wild oat; format: in vivo, Avena fatua; conditions: for Plant response rating, Wild oats: scale of 0 to 10 where 0 is no effect and 10 is complete control
Summary of the method: as §1

wheat = assay: Test B pre/postemergence wheat; format: in vivo, Triticum aestivum; conditions: for Plant response rating, Wheat: scale of 0 to 10 where 0 is no effect and 10 is complete control
Summary of the method: as §1

velvetleaf = assay: Test B pre/postemergence velvetleaf; format: in vivo, Abutilon theophrasti; conditions: for Plant response rating, Velvetleaf: scale of 0 to 10 where 0 is no effect and 10 is complete control
Summary of the method: as §1

rape = assay: Test B pre/postemergence rape; format: in vivo, Brassica napus; conditions: for Plant response rating, Rape: scale of 0 to 10 where 0 is no effect and 10 is complete control
Summary of the method: as §1

morningglory = assay: Test B pre/postemergence morningglory; format: in vivo, Ipomoea hederacea; conditions: for Plant response rating, Morningglory: scale of 0 to 10 where 0 is no effect and 10 is complete control
Summary of the method: as §1

bamyardgrass = assay: Test B flood test barnyardgrass; format: in vivo, Echinochloa crus-galli
Summary of the method: as §2

[1] = Postemergence, Rate 250 g/ha, scale 0 to 10
[2] = Preemergence, Rate 250 g/ha, scale 0 to 10, 0 is no effect, 10 is complete control
[3] = Preemergence, Rate 500 g/ha, scale 0 to 10, 0 is no effect, 10 is complete control
[4] = Rate 62 g/ha, Postemergence, scale 0 to 10 (0 no effect, 10 complete control)
[5] = Rate 125 g/ha, Postemergence, scale 0 to 10, 0 is no effect, 10 is complete control
[6] = Postemergence, Rate 500 g/ha, scale of 0 to 10 where 0 is no effect and 10 is complete control
[7] = Preemergence, Rate 62 g/ha, scale of 0 to 10 where 0 is no effect and 10 is complete control
[8] = Preemergence, Rate 125 g/ha, scale of 0 to 10 where 0 is no effect and 10 is complete control
[9] = Rate 62 g/ha, flood test species, Pre-emergence, visual evaluation after twelve to sixteen days
[10] = Rate 125 g/ha, under heading Pre-emergence, flood test species, visual evaluation after twelve to sixteen days
[11] = Rate 250 g/ha, Pre-emergence (flood test species), scale 0 to 10, 0 is no effect, 10 is complete control
[12] = Rate 500 g/ha, Pre-emergence, flood test species, scale 0 to 10 (0 no effect, 10 complete control)

## COC(OC)C(C)n1c(=O)on(C(=O)N(c2ccc(F)cc2)C(C)C)c1=O (stereo not drawn) [Compound 471]
Sugar beet; [1]
  Sugarbeets plant response rating: 0
Sugar beet; Preemergence, Rate 62 g/ha
  Plant response rating, Sugarbeets: 0
Sugar beet; Preemergence, Rate 125 g/ha
  Plant response rating, Sugarbeets: 2
Sugar beet; [2]
  Sugarbeets plant response rating: 2
Sugar beet; [3]
  Sugarbeets plant response rating: 4
Sugar beet; [4]
  Sugarbeets plant response rating: 0
Sugar beet; [5]
  Sugarbeets plant response rating: 0
Purple nutsedge; [1]
  Nutsedge plant response rating: 0
Purple nutsedge; Preemergence, Rate 62 g/ha
  Plant response rating, Nutsedge: 0
Purple nutsedge; Preemergence, Rate 125 g/ha
  Plant response rating, Nutsedge: 0
Purple nutsedge; [2]
  Nutsedge plant response rating: 0
Purple nutsedge; [3]
  Nutsedge plant response rating: 0
Purple nutsedge; [4]
  Nutsedge plant response rating: 0
Purple nutsedge; [5]
  Nutsedge plant response rating: 0
pigweed; [1]
  Redroot pigweed plant response rating: 2
pigweed; Preemergence, Rate 62 g/ha
  Plant response rating, Redroot pigweed: 10
pigweed; Preemergence, Rate 125 g/ha
  Plant response rating, Redroot pigweed: 10
pigweed; [2]
  Redroot pigweed plant response rating: 10
pigweed; [3]
  Redroot pigweed plant response rating: 10
pigweed; [4]
  Redroot pigweed plant response rating: 0
pigweed; [5]
  Redroot pigweed plant response rating: 0
Giant foxtail; [1]
  Giant foxtail plant response rating: 7
Giant foxtail; [6]
  Giant foxtail plant response rating: 8
Giant foxtail; [7]
  Plant response rating, Giant foxtail: 10
Giant foxtail; [8]
  Plant response rating, Giant foxtail: 10
Giant foxtail; [2]
  Giant foxtail plant response rating: 10
Giant foxtail; [3]
  Giant foxtail plant response rating: 10
Giant foxtail; [4]
  Giant foxtail plant response rating: 0
Giant foxtail; [5]
  Giant foxtail plant response rating: 1
soybean; [1]
  Soybean plant response rating: 3
soybean; Preemergence, Rate 62 g/ha
  Plant response rating, Soybean: 0
soybean; Preemergence, Rate 125 g/ha
  Plant response rating, Soybean: 0
soybean; [2]
  Soybean plant response rating: 0
soybean; [3]
  Soybean plant response rating: 0
soybean; [4]
  Soybean plant response rating: 2
soybean; [5]
  Soybean plant response rating: 2
rice; [9]
  Plant response rating, Rice (0 to 10 scale, 0 is no effect, 10 is complete control): 0
rice; [10]
  Rice plant response rating (0 to 10 scale, 0 is no effect, 10 is complete control): 0
rice; [11]
  Rice plant response rating: 0
rice; [12]
  Rice plant response rating: 0
Smallflower flatsedge; [9]
  Plant response rating, S. Flatsedge (0 to 10 scale, 0 is no effect, 10 is complete control): 0
Smallflower flatsedge; [10]
  S. Flatsedge plant response rating (0 to 10 scale, 0 is no effect, 10 is complete control): 0
Smallflower flatsedge; [11]
  S. Flatsedge plant response rating: 0
Smallflower flatsedge; [12]
  S. Flatsedge plant response rating: 0
blackgrass; [1]
  Blackgrass plant response rating: 3
blackgrass; [6]
  Blackgrass plant response rating: 7
blackgrass; [7]
  Plant response rating, Blackgrass: 9
blackgrass; [8]
  Plant response rating, Blackgrass: 10
blackgrass; [2]
  Blackgrass plant response rating: 10
blackgrass; [3]
  Blackgrass plant response rating: 10
blackgrass; [4]
  Blackgrass plant response rating: 0
blackgrass; [5]
  Blackgrass plant response rating: 2
Duck salad; [9]
  Plant response rating, Ducksalad (0 to 10 scale, 0 is no effect, 10 is complete control): 0
Duck salad; [10]
  Ducksalad plant response rating (0 to 10 scale, 0 is no effect, 10 is complete control): 0
Duck salad; [11]
  Ducksalad plant response rating: 0
Duck salad; [12]
  Ducksalad plant response rating: 0
cocklebur; [1]
  Cocklebur plant response rating: 0
cocklebur; [6]
  Cocklebur plant response rating: 0
cocklebur; [7]
  Plant response rating, Cocklebur: 0
cocklebur; [2]
  Cocklebur plant response rating: 0
cocklebur; [3]
  Cocklebur plant response rating: 0
cocklebur; [4]
  Cocklebur plant response rating: 0
cocklebur; [5]
  Cocklebur plant response rating: 0
Wild oat; [1]
  Wild oats plant response rating: 0
Wild oat; Preemergence, Rate 62 g/ha
  Plant response rating, Wild oats: 2
Wild oat; Preemergence, Rate 125 g/ha
  Plant response rating, Wild oats: 4
Wild oat; [2]
  Wild oats plant response rating: 7
Wild oat; [3]
  Wild oats plant response rating: 7
Wild oat; [4]
  Wild oats plant response rating: 0
Wild oat; [5]
  Wild oats plant response rating: 0
wheat; [1]
  Wheat plant response rating: 0
wheat; Preemergence, Rate 62 g/ha
  Plant response rating, Wheat: 0
wheat; Preemergence, Rate 125 g/ha
  Plant response rating, Wheat: 0
wheat; [2]
  Wheat plant response rating: 0
wheat; [3]
  Wheat plant response rating: 0
wheat; [4]
  Wheat plant response rating: 0
wheat; [5]
  Wheat plant response rating: 0
velvetleaf; [1]
  Velvetleaf plant response rating: 2
velvetleaf; Preemergence, Rate 62 g/ha
  Plant response rating, Velvetleaf: 2
velvetleaf; Preemergence, Rate 125 g/ha
  Plant response rating, Velvetleaf: 3
velvetleaf; [2]
  Velvetleaf plant response rating: 3
velvetleaf; [3]
  Velvetleaf plant response rating: 6
velvetleaf; [4]
  Velvetleaf plant response rating: 0
velvetleaf; [5]
  Velvetleaf plant response rating: 2
rape; [1]
  Rape plant response rating: 0
rape; Preemergence, Rate 62 g/ha
  Plant response rating, Rape: 2
rape; Preemergence, Rate 125 g/ha
  Plant response rating, Rape: 2
rape; [2]
  Rape plant response rating: 7
rape; [3]
  Rape plant response rating: 10
rape; [4]
  Rape plant response rating: 0
rape; [5]
  Rape plant response rating: 0
morningglory; [1]
  Morningglory plant response rating: 4
morningglory; Preemergence, Rate 62 g/ha
  Plant response rating, Morningglory: 0
morningglory; Preemergence, Rate 125 g/ha
  Plant response rating, Morningglory: 0
morningglory; [2]
  Morningglory plant response rating: 0
morningglory; [3]
  Morningglory plant response rating: 0
morningglory; [4]
  Morningglory plant response rating: 3
morningglory; [5]
  Morningglory plant response rating: 3
bamyardgrass; [9]
  Plant response rating, Barnyardgrass (0 to 10 scale, 0 is no effect, 10 is complete control): 0
bamyardgrass; [10]
  Barnyardgrass plant response rating (0 to 10 scale, 0 is no effect, 10 is complete control): 0
bamyardgrass; [11]
  Barnyardgrass plant response rating: 0
bamyardgrass; [12]
  Barnyardgrass plant response rating: 0
